Source: patent US20260206761A1, “HETEROARYL-TRIAZOLE COMPOUNDS AS PESTICIDES” (Bayer Aktiengesellschaft, priority 2019, published 2026)

Tests used:
Format in all cases: in vivo
[1] = tested on: larvae of the southern green stink bug (Nezara viridula); experiment: Nezara viridula spray test; conditions: 96 h, after 4 days; for mortality at 100 g/ha: application rate 100 g/ha; for mortality at 500 g/ha: application rate 500 g/ha
Method in brief: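 Larva-infested barley (Hordeum vulgare) plants received a spray of test solution prepared from an acetone/DMF concentrate diluted in emulsifier-containing water (1000 ppm). Percent kill read 4 days later; 0% means no stink bugs dead.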

[2] = tested on: green peach aphid (Myzus persicae); experiment: Myzus persicae oral test; conditions: 120 h, application rate 4 ppm, after 5 days
Method in brief: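 Aphids of mixed population ingest the compound preparation by sucking through a parafilm sheet stretched over wells holding test solution plus IPL41 insect medium (33%+15% sugar). Kill rate in percent is determined five days later.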

[3] = tested on: larvae of the banded cucumber beetle (Diabrotica balteata); experiment: Diabrotica balteata spray test; conditions: 168 h, after 7 days, read-out: activity (efficacy: seedlings grown); for pest or weed control at 100 g/ha: application rate 100 g/ha (=32 pg/well); for pest or weed control at 500 g/ha: application rate 500 g/ha (=160 pg/well)
Method in brief: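 Read-out is % efficacy at day 7, 0% meaning no seedling growth and 100% growth equal to uninfested untreated controls. Test solutions (acetone/DMF concentrate diluted with water carrying 1000 ppm emulsifier) were sprayed onto 1-day-germinated wheat seeds, 5 per well, before infestation with 10-20 larvae.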

[4] = tested on: adult engorged female ticks (Rhipicephalus microplus); experiment: Rhipicephalus (Boophilus) microplus injection test; conditions: 168 h, egg deposition after 7 days, read-out: activity (efficacy: infertile eggs); for pest or weed control at 4 pg: application rate 4 pg/animal; for pest or weed control at 0.02 mg: application rate 20 μg/animal
Method in brief: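 Compound in DMSO (10 mg per 0.5 mL, then diluted with DMSO to test concentration); 1 μL injected into the abdomen of each of five engorged females, then held in a climate chamber. Fertile egg deposition checked at 7 days; efficacy 100% = all eggs infertile, 0% = all fertile.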

[5] = tested on: adult unfed cat fleas (Ctenocephalides felis); experiment: Ctenocephalides felis oral test; conditions: 48 h, read-out: activity (mortality)
Method in brief: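 About 20 adult unfed fleas fed through parafilm on cattle blood containing compound (DMSO stock diluted in blood), blood held at 37 °C and fleas at room temperature. Mortality (%) scored after 2 days.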

[6] = tested on: adult cat fleas (Ctenocephalides felis); experiment: Ctenocephalides felis in-vitro contact test, adult cat flea; conditions: application rate 5 μg/cm^2 (=500 g/ha), after 48 hours, read-out: activity (efficacy: fleas dead or moribund)
Experimental: Ctenocephalides felis—In-Vitro Contact Tests Adult Cat Flea
9 mg compound is solved in 1 mL acetone and diluted with acetone to the desired concentration. 250 μL of the test solution is filled in 25 mL glass test tubes and homogeneously distributed on the inner walls by rotation and tilting on a shaking device (2 h at 30 rpm). With a compound concentration of 900 ppm, an inner surface of 44.7 cm^2 and a homogeneous distribution, a dose of […] is achieved.
After the solvent has evaporated, each test tube is filled with 5-10 adult cat fleas (Ctenocephalides felis), closed with a perforated lid and incubated in a lying position at room temperature and relative humidity. After 48 hours efficacy is determined. The fleas are patted on the ground of the tubes and are incubated on a heating plate at 45-50° C. for at most 5 minutes. Immotile or uncoordinated moving fleas, which are not able to escape the heat by climbing upwards, are marked as dead or moribund.
An efficacy of 100% means all fleas are dead or moribund; 0% means no fleas are dead or moribund.

[7] = tested on: adult brown dog ticks (Rhipicephalus sanguineus); experiment: Rhipicephalus sanguineus in-vitro contact test, adult brown dog ticks; conditions: after 48 hours, read-out: activity (efficacy: ticks dead or moribund); for pest or weed control at 100 g/ha: application rate 1 pg/cm^2 (=100 g/ha); for pest or weed control at 5 µg/cm2, 500 g/ha: application rate 5 μg/cm^2 (=500 g/ha)
Method in brief: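 Efficacy is % of adult ticks dead or moribund 48 h after confinement at room temperature in tubes wall-coated from acetone (5 μg/cm² at 900 ppm). Scoring by heat challenge at 45-50 °C up to 5 min; immotile or uncoordinated ticks failing to climb count as affected.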

[8] = tested on: fall armyworm larvae (Spodoptera frugiperda); experiment: Spodoptera frugiperda spray test; conditions: 168 h, read-out: activity (mortality)
Method in brief: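 Larvae of fall armyworm placed on dried maize leaf sections previously sprayed with emulsified compound (acetone/DMF solvent, water with 1000 ppm emulsifier). Percent of caterpillars killed recorded on day 7, 0–100% scale.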

[9] = tested on: Rhipicephalus microplus larvae (strain Parkhurst, resistant against synthetic pyrethroids); experiment: Rhipicephalus (Boophilus) microplus in-vitro contact test, larval cattle tick; conditions: after 48 hours, read-out: activity (efficacy: larvae dead or moribund); for pest or weed control at 100 g/ha: application rate 1 pg/cm^2 (=100 g/ha); for pest or weed control at 500 g/ha: application rate 5 pg/cm^2 (=500 g/ha)
Method in brief: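 Larvae (20-50 per tube) exposed to dry compound film on glass tube walls, 5 μg/cm^2 at 900 ppm, applied from acetone. After 48 h at 27° C./85% RH, tubes tapped and negative geotaxis scored; efficacy as percent dead or moribund larvae.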

[10] = tested on: green peach aphid (Myzus persicae); experiment: Myzus persicae spray test; conditions: 120 h, after 5 days; for mortality at 100 g/ha: application rate 100 g/ha; for mortality at 500 g/ha: application rate 500 g/ha
Experimental: Myzus persicae—Spray Test
Solvent: 78.0 parts by weight acetone • 1.5 parts by weight dimethylformamide
Emulsifier: alkylarylpolyglycol ether
To produce a suitable preparation of active compound, 1 part by weight of active compound is mixed with the stated amount of solvents and is diluted with water, containing an emulsifier concentration of 1000 ppm, to the desired concentration. Further test concentrations are prepared by dilution with emulsifier containing water.
Chinese cabbage (Brassica pekinensis) leaf disks infected with all instars of the green peach aphid (Myzus persicae), are sprayed with a preparation of the active ingredient of the desired concentration.
After 5 days mortality in % is determined. 100% means all aphids have been killed and 0% means none of the aphids have been killed.

[11] = tested on: Aedes aegypti strain MONHEIM; experiment: Aedes aegypti test (AEDSAE surface treatment & contact assay); conditions: 24 hours after contact, read-out: efficacy (mortality); for mortality at 4 mg/m2: surface concentration 4 mg/m^2, exposure 30 minutes
Experimental: Aedes aegypti Test (AEDSAE Surface Treatment & Contact Assay)
Solvent: Aceton+2000 ppm rapeseed oil methyl ester (RME)
In order to produce a sufficient, active ingredient containing solution it is necessary to solve the test compound in the solvent-mix (acetone at 2 mg/ml/RME 2000 ppm). This solution is pipetted onto a glazed tile and after evaporation of the acetone, adult mosquitoes of the species Aedes aegypti strain MONHEIM are placed onto the dried surface. The exposure time is 30 minutes. Mortality in percent (%) is determined 24 hours after contact of the insects to the treated surface. 100% mortality means that all tested insects are dead, whereas 0% means that no insect died.

Row | Compound | mortality at 100 g/ha [1] [%] | mortality at 500 g/ha [1] [%] | mortality at 4 ppm [2] [%] | pest or weed control at 100 g/ha [3] [%] | pest or weed control at 500 g/ha [3] [%] | pest or weed control at 4 pg [4] [%] | pest or weed control at 0.02 mg [4] [%] | mortality at 100 ppm [5] [%] | pest or weed control at 5 µg/cm2 [6] [%] | pest or weed control at 100 g/ha [7] [%] | pest or weed control at 5 µg/cm2, 500 g/ha [7] [%] | mortality at 100 g/ha [8] [%] | pest or weed control at 100 g/ha [9] [%] | pest or weed control at 500 g/ha [9] [%] | mortality at 100 g/ha [10] [%] | mortality at 500 g/ha [10] [%] | mortality at 4 mg/m2 [11] [%] | mortality at 20 mg/m2 ([11]; surface concentration 20 mg/m^2, exposure 30 minutes) [%] | mortality at 500 g/ha [8] [%]
1 | CC(NC(=O)c1cc(Cl)cc(S(C)(=O)=O)c1)c1nc(C(F)F)nn1-c1ncccn1 (centres unmarked) [I-5] | 90 | 90 | 100 | 100 | 100 | 100 | 100 | 100 | 80 |  |  |  |  |  |  |  |  |  | 
2 | CCS(=O)(=O)c1cc(Cl)cc(C(=O)N[C@@H](C)c2nc(C3CC3)nn2-c2ncc(Cl)cn2)c1 [I-24] | 100 |  | 100 |  |  | 100 | 100 | 90 | 80 | 100 | 80 | 100 | 100 | 100 |  |  |  |  | 
3 | COc1nc([C@H](C)NC(=O)c2cc(Cl)cc(S(C)(=O)=O)c2)n(-c2ccc(Cl)cn2)n1 [I-45] |  |  | 100 | 100 |  | 100 |  |  | 100 |  |  | 100 | 90 | 90 | 90 |  |  |  | 
4 | C[C@H](NC(=O)c1cc(C(F)F)cc(S(C)(=O)=O)c1)c1nc(C2CC2)nn1-c1ccc(C#N)cn1 [I-51] |  |  | 100 | 100 |  | 100 |  | 100 | 90 |  |  | 100 | 100 | 100 |  |  |  |  | 
5 | C[C@H](NC(=O)c1cc(Cl)cc(S(C)(=O)=O)c1)c1nc(C2CC2)nn1-c1ncc(Cl)cn1 [I-61] | 100 | 100 | 100 | 100 |  |  |  |  | 100 | 80 | 100 | 100 | 100 | 100 | 90 | 90 |  |  | 
6 | C[C@H](NC(=O)c1cc(Cl)cc(C2(C#N)CC2)c1)c1ncnn1-c1cc(C#N)ccn1 [II-4] | 100 | 100 | 100 | 100 | 100 | 100 | 100 | 100 | 80 |  |  | 83 |  |  |  | 90 | 80 to 100 | 80 to 100 | 
7 | Cc1nc([C@H](C)NC(=O)c2cc(Cl)cc(S(=O)(=O)C(F)(F)F)c2)n(-c2ccc(C#N)cn2)n1 [II-15, 3-chloro-N-{(1S)-1-[1-(5-cyanopyridin-2-yl)-3-methyl-1H-1,2,4-triazol-5-yl]ethyl}-5-[(trifluoromethyl)sulfonyl]benzamide] |  | 100 | 100 | 100 | 100 | 100 | 100 | 100 | 90 |  |  | 100 | 100 | 100 |  | 90 |  |  | 100
8 | C[C@H](NC(=O)c1cc(C#N)cc(S(C)(=O)=O)c1)c1ncnn1-c1ccccn1 [II-31] | 100 | 100 | 100 | 100 | 100 | 100 | 100 | 100 | 100 | 100 |  |  |  |  |  |  |  |  | 83
9 | C[C@H](NC(=O)c1cc(Br)cc(S(C)(=O)=O)c1)c1ncnn1-c1ccc(Cl)cn1 [II-40] | 100 |  |  |  |  | 100 | 100 | 100 | 100 | 100 | 100 | 100 | 100 | 100 |  |  | 80 to 100 |  | 
10 | C[C@H](NC(=O)c1cc(Cl)cc(S(C)(=O)=O)c1)c1ncnn1-c1ncc(I)cn1 [II-44] | 100 |  | 100 |  |  | 100 | 100 | 100 | 100 |  |  | 100 | 100 | 100 |  |  |  |  | 
11 | Cc1nc([C@H](C)NC(=O)c2cc(C(F)F)cc(C3CC3)c2)n(-c2ccc(C#N)cn2)n1 [II-61] | 100 |  | 100 | 100 |  | 100 |  |  | 100 | 100 | 100 | 83 | 100 | 100 | 90 |  |  |  | 
